Here are results for 23 molecules from patent US12503475B2 (Centessa Pharmaceuticals (UK) Limited, priority 2020, dated 2025).

In the experiment the target is T1, human orexin type 2 receptor (hOX2R) (Homo sapiens, UniProt O43614).
T1 construct: expressed in transfected cells
T1 sequence (O43614 1-444): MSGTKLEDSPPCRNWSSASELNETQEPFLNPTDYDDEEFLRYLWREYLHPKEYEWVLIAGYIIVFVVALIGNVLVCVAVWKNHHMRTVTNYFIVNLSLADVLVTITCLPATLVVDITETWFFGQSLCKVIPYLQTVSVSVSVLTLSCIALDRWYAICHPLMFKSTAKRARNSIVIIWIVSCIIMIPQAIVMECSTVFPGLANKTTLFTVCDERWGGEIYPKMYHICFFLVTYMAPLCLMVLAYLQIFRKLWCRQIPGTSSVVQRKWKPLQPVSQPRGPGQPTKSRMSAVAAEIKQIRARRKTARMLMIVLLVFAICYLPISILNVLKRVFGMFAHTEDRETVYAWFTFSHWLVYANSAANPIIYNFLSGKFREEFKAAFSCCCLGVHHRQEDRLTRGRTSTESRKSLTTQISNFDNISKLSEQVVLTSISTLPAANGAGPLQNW
The experiment in a line: Measurement of orexin type 2 receptor agonist activity (FLIPR calcium fluorescence). It counts as cell-based. The note with it: CHO cells expressing hOX2R, FLIPR calcium fluorescence; for EC50: read-out: hOx2 pEC50 (converted); for Emax: CHO, read-out: hOx2 Emax (%). The method, boiled down:
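Agonism was read as fluorescence in cells stably expressing human OX2R. E. is the response at 10 μM relative to orexin A as full agonist (100%).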

As a reminder, the Emax is the greatest response seen or fitted, relative to the assay's reference.

Each structure is given as a SMILES string.

On to `CC[C@@](C)(O)C(=O)N1CC2(CC2)[C@H](NS(=O)(=O)CF)[C@@H]1Cc1cccc(-c2cccc(F)c2)c1F` [Compound 379, N-((6S,7S)-6-((2,3′-difluoro-[1,1′-biphenyl]-3-yl)methyl)-5-((R)-2-hydroxy-2-methylbutanoyl)-5-azaspiro[2.4]heptan-7-yl)-1-fluoromethanesulfonamide], for which the EC50 is 1 to 10 nM and the Emax was 90 to 100%.

With `O=C([C@H](O)CF)N1CC2(CC2)[C@H](NS(=O)(=O)C(F)F)[C@@H]1Cc1cccc(-c2cccc(F)c2)c1F` [Compound 380, N-((6S,7S)-6-((2,3′-difluoro-[1,1′-biphenyl]-3-yl)methyl)-5-((S)-3-fluoro-2-hydroxypropanoyl)-5-azaspiro[2.4]heptan-7-yl)-1,1-difluoromethanesulfonamide], the EC50 was 0.0794 to 1 nM and the Emax lay in the range of 90 to 100%.

With `N#CC1(C(=O)N2CC3(CC3)[C@H](NS(=O)(=O)C(F)F)[C@@H]2Cc2cccc(-c3cc(F)cc(F)c3)c2F)CCC1` [Compound 381, N-((6S,7S)-5-(1-cyanocyclobutane-1-carbonyl)-6-((2,3′,5′-trifluoro-[1,1′-biphenyl]-3-yl)methyl)-5-azaspiro[2.4]heptan-7-yl)-1,1-difluoromethanesulfonamide], the EC50 was 1 to 10 nM and the Emax lay in the range of 90 to 100%.

For `O=C(NCC(F)F)N1CC2(CC2)[C@H](NS(=O)(=O)C(F)F)[C@@H]1Cc1cccc(-c2cc(F)cc(F)c2)c1F` [Compound 382, (6S,7S)-N-(2,2-difluoroethyl)-7-((difluoromethyl)sulfonamido)-6-((2,3′,5′-trifluoro-[1,1′-biphenyl]-3-yl)methyl)-5-azaspiro[2.4]heptane-5-carboxamide], the EC50 is 0.0794 to 1 nM and the Emax was in the range of 90 to 100%.

`O=C(NCC(F)(F)F)N1CC2(CC2)[C@H](NS(=O)(=O)C(F)F)[C@@H]1Cc1cc(F)cc(-c2ccccc2)c1F` [Compound 383, (6S,7S)-6-((2,5-difluoro-[1,1′-biphenyl]-3-yl)methyl)-7-((difluoromethyl)sulfonamido)-N-(2,2,2-trifluoroethyl)-5-azaspiro[2.4]heptane-5-carboxamide]: the EC50 is 1 to 10 nM and the Emax lay in the range of 90 to 100%.

Take `O=C([C@@H](O)C1CC1)N1CC2(CC2)[C@H](NS(=O)(=O)C(F)F)[C@@H]1Cc1cc(F)cc(-c2cc(F)cc(F)c2)c1F` [Compound 384, N-((6S,7S)-5-((S)-2-cyclopropyl-2-hydroxyacetyl)-6-((2,3′,5,5′-tetrafluoro-[1,1′-biphenyl]-3-yl)methyl)-5-azaspiro[2.4]heptan-7-yl)-1,1-difluoromethanesulfonamide]: the EC50 was 1 to 10 nM and the maximal response (Emax) was 90 to 100%.

Regarding `O=C([C@@H](O)C1CC1)N1CC2(CC2)[C@H](NS(=O)(=O)C(F)F)[C@@H]1Cc1cc(F)cc(-c2ccccc2)c1F` [Compound 385], the EC50 is 0.0794 to 1 nM and the maximal effect (Emax) was in the range of 90 to 100%.

Consider `COCC1(C(=O)N2CC3(CC3)[C@H](NS(C)(=O)=O)[C@@H]2Cc2cccc(-c3ccccc3)c2F)CC1` [Compound 386, N-((6S,7S)-6-((2-fluoro-[1,1′-biphenyl]-3-yl)methyl)-5-(1-(methoxymethyl)cyclopropane-1-carbonyl)-5-azaspiro[2.4]heptan-7-yl)methanesulfonamide], for which the EC50 was 1 to 10 nM and the Emax lay within 90 to 100%.

As to `O=C(NCC(F)F)N1CC2(CC2)[C@H](NS(=O)(=O)C(F)F)[C@@H]1Cc1cc(F)cc(-c2cc(F)cc(F)c2)c1F` [Compound 387], the EC50 is 1 to 10 nM and the Emax lay within 90 to 100%.

Turning to `C[C@H](CF)NC(=O)N1CC2(CC2)[C@H](NS(=O)(=O)C(F)F)[C@@H]1Cc1cc(F)cc(-c2ccccc2)c1F` [Compound 388, (6S,7S)-6-((2,5-difluoro-[1,1′-biphenyl]-3-yl)methyl)-7-((difluoromethyl)sulfonamido)-N-((R)-1-fluoropropan-2-yl)-5-azaspiro[2.4]heptane-5-carboxamide], the EC50 was 1 to 10 nM and the Emax was in the range of 90 to 100%.

For the molecule `O=C(NCC(F)F)N1CC2(CC2)[C@H](NS(=O)(=O)C(F)F)[C@@H]1Cc1cc(F)cc(-c2ccccc2)c1F` [Compound 389, (6S,7S)-6-((2,5-difluoro-[1,1′-biphenyl]-3-yl)methyl)-N-(2,2-difluoroethyl)-7-((difluoromethyl)sulfonamido)-5-azaspiro[2.4]heptane-5-carboxamide], the EC50 was 1 to 10 nM and the Emax is 90 to 100%.

On to `O=C([C@H](O)CF)N1CC2(CC2)[C@H](NS(=O)(=O)C(F)F)[C@@H]1Cc1cc(F)cc(-c2ccccc2)c1F` [Compound 390, N-((6S,7S)-6-((2,5-difluoro-[1,1′-biphenyl]-3-yl)methyl)-5-((S)-3-fluoro-2-hydroxypropanoyl)-5-azaspiro[2.4]heptan-7-yl)-1,1-difluoromethanesulfonamide], for which the EC50 is 1 to 10 nM and the Emax is 90 to 100%.

Turning to `O=C([C@H](O)CF)N1CC2(CC2)[C@H](NS(=O)(=O)CF)[C@@H]1Cc1cccc(-c2cc(F)cc(F)c2)c1F` [Compound 391, 1-fluoro-N-((6S,7S)-5-((S)-3-fluoro-2-hydroxypropanoyl)-6-((2,3′,5′-trifluoro-[1,1′-biphenyl]-3-yl)methyl)-5-azaspiro[2.4]heptan-7-yl)methanesulfonamide], the EC50 is 0.0794 to 1 nM and the Emax was in the range of 90 to 100%.

As to `O=C([C@H](O)CF)N1CC2(CC2)[C@H](NS(=O)(=O)C(F)F)[C@@H]1Cc1cccc(-c2cc(F)cc(F)c2)c1F` [Compound 392, 1,1-difluoro-N-((6S,7S)-5-((S)-3-fluoro-2-hydroxypropanoyl)-6-((2,3′,5′-trifluoro-[1,1′-biphenyl]-3-yl)methyl)-5-azaspiro[2.4]heptan-7-yl)methanesulfonamide], the EC50 was 0.0794 to 1 nM and the Emax fell in the range of 90 to 100%.

For `C[C@H](F)C(=O)N1CC2(CC2)[C@H](NS(=O)(=O)CF)[C@@H]1Cc1cc(F)cc(-c2cccc(F)c2)c1F` [Compound 393, 1-fluoro-N-((6S,7S)-5-((S)-2-fluoropropanoyl)-6-((2,3′,5-trifluoro-[1,1′-biphenyl]-3-yl)methyl)-5-azaspiro[2.4]heptan-7-yl)methanesulfonamide], the EC50 was 1 to 10 nM and the Emax lay in the range of 90 to 100%.

Take `C[C@@H](F)C(=O)N1CC2(CC2)[C@H](NS(=O)(=O)CF)[C@@H]1Cc1cc(F)cc(-c2cccc(F)c2)c1F` [Compound 394]: the EC50 was 0.0794 to 1 nM and the Emax is 90 to 100%.

Consider `CC(C)S(=O)(=O)N[C@@H]1[C@H](Cc2cc(F)cc(-c3cc(F)cc(F)c3)c2F)N(C(=O)[C@H]2CCO2)CC12CC2` [Compound 395, N-((6S,7S)-5-((R)-oxetane-2-carbonyl)-6-((2,3′,5,5′-tetrafluoro-[1,1′-biphenyl]-3-yl)methyl)-5-azaspiro[2.4]heptan-7-yl)propane-2-sulfonamide], for which the EC50 was 0.0794 to 1 nM and the maximum response (Emax) lay in the range of 90 to 100%.

For `CC(C)S(=O)(=O)N[C@@H]1[C@H](Cc2cc(F)cc(-c3ccccc3)c2F)N(C(=O)[C@H]2CCO2)CC12CC2` [Compound 396], the EC50 was 1 to 10 nM and the Emax fell in the range of 90 to 100%.

On to `[2H]C([2H])([2H])Oc1c(C[C@H]2[C@@H](NS(=O)(=O)CF)C3(CC3)CN2C(=O)NC([2H])([2H])C([2H])([2H])[2H])cccc1-c1ccccc1` [Compound 397, (6S,7S)-N-(ethyl-d5)-7-((fluoromethyl)sulfonamido)-6-((2-(methoxy-d3)-[1,1′-biphenyl]-3-yl)methyl)-5-azaspiro[2.4]heptane-5-carboxamide], for which the EC50 was 1 to 10 nM and the Emax lay within 80 to 90%.

With `CC(C)(F)S(=O)(=O)N[C@@H]1[C@H](Cc2cccc(-c3ccccc3)c2F)N(C(=O)[C@H]2CCO2)CC12CC2` [Compound 398, 2-fluoro-N-((6S,7S)-6-((2-fluoro-[1,1′-biphenyl]-3-yl)methyl)-5-((R)-oxetane-2-carbonyl)-5-azaspiro[2.4]heptan-7-yl)propane-2-sulfonamide], the EC50 was 1 to 10 nM and the Emax is 90 to 100%.

In the case of `COC1CN(C(=O)N2CC3(CC3)[C@H](NS(=O)(=O)CF)[C@@H]2Cc2cccc(-c3cccc(F)c3)c2F)C1` [Compound 400, N-((6S,7S)-6-((2,3′-difluoro-[1,1′-biphenyl]-3-yl)methyl)-5-(3-methoxyazetidine-1-carbonyl)-5-azaspiro[2.4]heptan-7-yl)-1-fluoromethanesulfonamide], the EC50 is 1 to 10 nM and the maximum response (Emax) fell in the range of 90 to 100%.

On to `O=C([C@H]1CCCO1)N1CC2(CC2)[C@H](NS(=O)(=O)CF)[C@@H]1Cc1cccc(-c2ccccc2)c1F` [Compound 401, 1-fluoro-N-((6S,7S)-6-((2-fluoro-[1,1′-biphenyl]-3-yl)methyl)-5-((R)-tetrahydrofuran-2-carbonyl)-5-azaspiro[2.4]heptan-7-yl)methanesulfonamide], for which the EC50 is 1 to 10 nM and the maximum response (Emax) was in the range of 90 to 100%.

As to `COC1CN(C(=O)N2CC3(CC3)[C@H](NS(=O)(=O)CF)[C@@H]2Cc2cccc(-c3cc(F)cc(F)c3)c2F)C1` [Compound 402, 1-fluoro-N-((6S,7S)-5-(3-methoxyazetidine-1-carbonyl)-6-((2,3′,5′-trifluoro-[1,1′-biphenyl]-3-yl)methyl)-5-azaspiro[2.4]heptan-7-yl)methanesulfonamide], the EC50 was 1 to 10 nM and the maximal effect (Emax) fell in the range of 90 to 100%.
